Here are results for 28 compounds from patent publication US20260132129A1 (Genesis Therapeutics, Inc., priority 2022, published 2026).

The test deals with T1, PI3Kα H1047R (T47D cells) (Homo sapiens, UniProt P42336, H1047R).
T1 construct: endogenous in cells; host or cells: T47D cells
Briefly: PI3Kα cellular assay: pAKT HTRF in T47D cells after EGF stimulation. The settings on record: for IC50: T47D cells (PI3Kα H1047R), pAKT S473 HTRF. It is filed as cell-based. How it is done:
SKBR3 or T47D cells are seeded in DMEM containing 10% FBS at 25k cells/well into 96-well cell culture format. Cells are incubated overnight at 37° C. in a 5% CO2 incubator and the following day cell media is aspirated, adherent cells are washed 1× with room temperature PBS prior to serum-free media application. Cells are returned to 37° C. 5% CO2 incubator and incubated a further 16 hrs. Compounds are added to serum starved adherent cells with a top dose of 10,000 nM and 3× multiple dose reductions for a minimum dose of 0.5 nM diluted in DMSO. Cell/compound incubation continues for 1 hr in a 37° C., 5% CO2 incubator prior to 10 minute PIK3CA stimulation with 20 ng/ml EGF. Cells treated with 0.1% DMSO and 20 ng/mL EGF are employed as negative control, cells treated with 10 uM Alpelisib and 20 ng/mL EGF are employed as a positive control. After 10 mins, plates are removed from incubator and cells are lysed with buffer and shaking 45 minutes. […] 384 well plate is left overnight at room temperature before reading HTRF on an Envision plate reader.
ND denotes value not determined with that assay for the specified compound; • for T47D (H1047R) selectivity over SKBR3 (WT): A denotes >20-fold; B denotes 20-fold≥value>5-fold; C denotes ≤5-fold. ND denotes value not determined with that assay for the specified compound; and • for T47D pAKT lipophilic efficiency (LiPE): A denotes >4; B denotes 4≥value>2; C denotes ≤2. ND denotes value not determined with that assay for the specified compound.
A general note: Time-resolved FRET reads energy transfer from a long-lived donor to a nearby acceptor.

The mark [1] stands for this setting: selectivity of T47D (H1047R) over SKBR3 (WT) pAKT IC50.
Setting [2] is: selectivity T47D (H1047R) over SKBR3 (WT), pAKT HTRF.
Where [3] appears, read: 1 hr compound, 20 ng/ml EGF 10 min.

T1 sequence (P42336 whole entry H1047R): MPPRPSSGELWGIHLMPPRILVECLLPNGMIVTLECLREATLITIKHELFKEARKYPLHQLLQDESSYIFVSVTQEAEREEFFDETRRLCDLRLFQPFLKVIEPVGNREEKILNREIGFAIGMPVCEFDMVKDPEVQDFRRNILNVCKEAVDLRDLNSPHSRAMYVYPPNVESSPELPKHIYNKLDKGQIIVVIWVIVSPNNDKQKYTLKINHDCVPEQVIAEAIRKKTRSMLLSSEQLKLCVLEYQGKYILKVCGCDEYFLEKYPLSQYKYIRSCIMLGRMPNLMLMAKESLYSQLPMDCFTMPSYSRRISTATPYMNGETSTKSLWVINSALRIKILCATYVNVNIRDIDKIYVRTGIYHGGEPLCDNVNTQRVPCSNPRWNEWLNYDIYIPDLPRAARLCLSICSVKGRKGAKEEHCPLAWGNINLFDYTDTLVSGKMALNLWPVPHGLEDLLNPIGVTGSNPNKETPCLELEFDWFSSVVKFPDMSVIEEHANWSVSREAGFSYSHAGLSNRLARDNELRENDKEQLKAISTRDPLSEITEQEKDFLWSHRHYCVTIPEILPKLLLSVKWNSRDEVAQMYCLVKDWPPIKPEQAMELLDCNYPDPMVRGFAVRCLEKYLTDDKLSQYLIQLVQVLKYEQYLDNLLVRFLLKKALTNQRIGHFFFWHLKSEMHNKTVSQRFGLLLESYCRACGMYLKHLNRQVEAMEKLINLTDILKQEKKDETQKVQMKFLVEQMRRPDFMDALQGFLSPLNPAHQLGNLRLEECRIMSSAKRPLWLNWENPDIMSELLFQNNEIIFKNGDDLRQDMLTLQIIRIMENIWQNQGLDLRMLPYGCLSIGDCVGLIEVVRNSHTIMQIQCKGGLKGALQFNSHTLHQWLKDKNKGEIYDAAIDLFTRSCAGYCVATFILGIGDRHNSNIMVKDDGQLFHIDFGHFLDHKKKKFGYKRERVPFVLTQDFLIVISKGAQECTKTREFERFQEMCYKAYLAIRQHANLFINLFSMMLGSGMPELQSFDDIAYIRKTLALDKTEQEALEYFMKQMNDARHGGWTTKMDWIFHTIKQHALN
T1 sequence (P27986 whole entry partner): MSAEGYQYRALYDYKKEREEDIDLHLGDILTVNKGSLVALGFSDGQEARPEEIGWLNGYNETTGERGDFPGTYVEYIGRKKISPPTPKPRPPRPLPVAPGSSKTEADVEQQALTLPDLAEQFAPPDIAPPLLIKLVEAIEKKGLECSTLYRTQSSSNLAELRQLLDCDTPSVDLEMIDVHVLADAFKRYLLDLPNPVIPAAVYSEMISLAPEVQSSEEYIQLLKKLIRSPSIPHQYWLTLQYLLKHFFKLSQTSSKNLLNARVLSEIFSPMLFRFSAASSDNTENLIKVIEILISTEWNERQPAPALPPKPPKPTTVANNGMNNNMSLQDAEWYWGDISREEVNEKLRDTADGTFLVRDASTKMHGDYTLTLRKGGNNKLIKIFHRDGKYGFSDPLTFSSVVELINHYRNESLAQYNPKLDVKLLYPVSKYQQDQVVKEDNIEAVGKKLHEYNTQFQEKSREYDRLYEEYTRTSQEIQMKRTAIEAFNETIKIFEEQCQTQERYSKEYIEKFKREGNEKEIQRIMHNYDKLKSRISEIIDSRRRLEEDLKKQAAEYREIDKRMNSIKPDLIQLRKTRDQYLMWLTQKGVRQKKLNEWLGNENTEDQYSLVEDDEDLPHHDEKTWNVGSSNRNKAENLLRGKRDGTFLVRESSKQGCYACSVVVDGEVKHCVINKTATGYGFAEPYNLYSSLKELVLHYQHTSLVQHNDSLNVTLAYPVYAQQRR

`Cc1cc([C@@H](C)Nc2ccccc2C(=O)O)c2nc(-c3cccnc3)c(C)c(=O)n2c1` (single isomer, unassigned) [Compound 949]: the IC50 (EGF stimulation) was < 100 nM. Also, the “T47D pAKT S473 HTRF IC50 (H1047R): T47D (H1047R) selectivity over SKBR3 (WT)” value under setting [1] is on record as “A (A denotes >20-fold)”.

On to `Cc1cc([C@@H](C)Nc2ccccc2C(=O)O)c2nc(-c3cnc(C)c(Cl)c3)c(C)c(=O)n2c1` (single isomer, unassigned) [Compound 951], for which the IC50 (EGF stimulation) was < 100 nM. Also, the “T47D pAKT S473 HTRF IC50 (H1047R): T47D (H1047R) selectivity over SKBR3 (WT)” value under setting [1] is listed as “A (A denotes >20-fold)”.

With `Cc1cc([C@@H](C)Nc2ccccc2C(=O)O)c2nc(-c3ccnc(C4CC4)c3)c(C)c(=O)n2c1` (single isomer, unassigned) [Compound 953], for the setting “EGF stimulation”, the IC50 was < 100 nM. For the same compound, the “T47D pAKT S473 HTRF IC50 (H1047R): T47D (H1047R) selectivity over SKBR3 (WT)” value under setting [1] is “A (A denotes >20-fold)”. In the same order, the values of `Cc1cc([C@@H](C)Nc2ccccc2C(=O)O)c2nc(-c3ccc(Cl)cc3)c(C)c(=O)n2c1` (single isomer, unassigned) [Compound 963] are < 100 nM and “A (A denotes >20-fold)”. In the same order, the values of `Cc1cc([C@@H](C)Nc2ccccc2C(=O)O)c2nc(-c3ccc(Cl)cc3F)c(C)c(=O)n2c1` (single isomer, unassigned) [Compound 965] are < 100 nM and “A (A denotes >20-fold)”. In the same order, the values of `Cc1cc([C@@H](C)Nc2ccccc2C(=O)O)c2nc(-c3cccc(C#N)c3)c(C)c(=O)n2c1` (single isomer, unassigned) [Compound 967] are < 100 nM and “A (A denotes >20-fold)”.

Regarding `Cc1cc([C@@H](C)Nc2ccccc2C(=O)O)c2nc(-c3cccc(F)c3)c(C)c(=O)n2c1` (single isomer, unassigned) [Compound 969], under “EGF stimulation”, the IC50 is < 100 nM. Also, the “T47D pAKT S473 HTRF IC50 (H1047R): T47D (H1047R) selectivity over SKBR3 (WT)” value under setting [1] is “A (A denotes >20-fold)”.

Take `Cc1cc([C@@H](C)Nc2ccccc2C(=O)O)c2nc(-c3cccc(C4CC4)c3)c(C)c(=O)n2c1` (single isomer, unassigned) [Compound 971]: the IC50 (EGF stimulation) was < 100 nM. Also, the “T47D pAKT S473 HTRF IC50 (H1047R): T47D (H1047R) selectivity over SKBR3 (WT)” value under setting [1] is given as “A (A denotes >20-fold)”. Regarding `Cc1cc([C@@H](C)Nc2ccccc2C(=O)O)c2nc(-c3ccc(C4CC4)nc3)c(C)c(=O)n2c1` (single isomer, unassigned) [Compound 973], the IC50 (EGF stimulation) is < 100 nM. Under setting [1], the “T47D pAKT S473 HTRF IC50 (H1047R): T47D (H1047R) selectivity over SKBR3 (WT)” value is “A (A denotes >20-fold)”. Turning to `Cc1cc([C@@H](C)Nc2ccccc2C(=O)O)c2nc(-c3ccc(C#N)nc3)c(C)c(=O)n2c1` (single isomer, unassigned) [Compound 975], where the note is “EGF stimulation”, the IC50 is < 100 nM. For the same compound, the “T47D pAKT S473 HTRF IC50 (H1047R): T47D (H1047R) selectivity over SKBR3 (WT)” value under setting [1] is reported as “A (A denotes >20-fold)”. Consider `Cc1cc([C@H](C)Nc2ccccc2C(=O)O)c2nc(-c3cnc(C#N)c(Cl)c3)c(C)c(=O)n2c1` (single isomer, unassigned) [Compound 978], for which the IC50 (EGF stimulation) is < 100 nM. The “T47D pAKT S473 HTRF IC50 (H1047R): T47D (H1047R) selectivity over SKBR3 (WT)” value under setting [1] is listed as “A (A denotes >20-fold)”. In the same order, the values of `Cc1cc([C@H](C)Nc2ccccc2C(=O)O)c2nc(C3Cc4ccccc4C3)c(C3CC3)c(=O)n2c1` (single isomer, unassigned) [Compound 983] are 500 to 2000 nM and “B (B denotes 20-fold≥value>5-fold)”. With `Cc1cc([C@@H](C)Nc2ccccc2C(=O)O)c2nc(OC3CCOCC3)c(C)c(=O)n2c1` (single isomer, unassigned) [Compound 1370], the IC50 (EGF stimulation) was > 2000 nM. Moreover, the “T47D pAKT S473 HTRF IC50 (H1047R): T47D (H1047R) selectivity over SKBR3 (WT)” value under setting [2] is listed as “C (C denotes ≤5-fold)”. As to `Cc1cc([C@H](C)Nc2ccccc2C(=O)O)c2nc(OC3CCOCC3)c(C)c(=O)n2c1` (single isomer, unassigned) [Compound 1371], under “EGF stimulation”, the IC50 is < 100 nM. Besides, the “T47D pAKT S473 HTRF IC50 (H1047R): T47D (H1047R) selectivity over SKBR3 (WT)” value under setting [2] is recorded as “A (A denotes >20-fold)”. Under “EGF stimulation”, `Cc1cc([C@@H](C)Nc2cccc3onc(O)c23)c2nc(-c3cccc(F)c3)c(C)c(=O)n2c1` (single isomer, unassigned) [Compound 1374] came in with an IC50 of 100 to 500 nM. The “T47D pAKT S473 HTRF IC50 (H1047R): T47D (H1047R) selectivity over SKBR3 (WT)” value under setting [2] was “A (A denotes >20-fold)”. In the same order, the values of `Cc1cc([C@H](C)Oc2ccccc2C2(O)CS(=O)(=O)C2)c2nc(-c3cccc(F)c3)c(C)c(=O)n2c1` (single isomer, unassigned) [Compound 1393] are < 100 nM and “A (A denotes >20-fold)”. `Cc1cc([C@@H](C)Nc2ccccc2C(=O)O)c2nc(N3CCCCC3)cc(=O)n2c1` [Compound 7] yielded an IC50 under setting [3] of 100 to 500 nM. Besides, the “T47D pAKT S473 HTRF IC50 (H1047R): T47D (H1047R) selectivity over SKBR3 (WT)” value under setting [2] is recorded as “A (A denotes >20-fold)”. The matching figures for `Cc1cc([C@H](C)Nc2ccccc2C(=O)O)c2nc(N3CCCCC3)cc(=O)n2c1` [Compound 8]: > 2000 nM and “C (C denotes ≤5-fold)”. In the same order, the values of `CC1=CN2C(=O)CC(N3CCOCC3)N=C2C(C(C)Nc2ccccc2)=C1` (stereo not shown) [Compound 47] are > 2000 nM and “C (C denotes ≤5-fold)”. In the same order, the values of `CCC(Nc1ccccc1C(=O)O)c1cc(C)cn2c(=O)cc(N3CCOCC3)nc12` (stereo not shown) [Compound 132] are 500 to 2000 nM and “C (C denotes ≤5-fold)”.

As to `Cc1cc(C(C)Nc2ccccc2S(C)(=O)=O)c2nc(N3CCOCC3)cc(=O)n2c1` (stereo not shown) [Compound 134], the “T47D pAKT S473 HTRF IC50 (H1047R): T47D (H1047R) selectivity over SKBR3 (WT)” value under setting [2] is given as “B (B denotes 20-fold≥value>5-fold)”.

In the case of `Cc1cc(C(C)Nc2ccccc2C(=O)O)c2nc(N3CCS(=O)(=O)CC3)cc(=O)n2c1` (stereo not shown) [Compound 137], the IC50 under setting [3] is > 2000 nM. Besides, the “T47D pAKT S473 HTRF IC50 (H1047R): T47D (H1047R) selectivity over SKBR3 (WT)” value under setting [2] is given as “C (C denotes ≤5-fold)”. Take `Cc1cc([C@@H](C)Nc2ccccc2C(=O)O)c2nc(N3CCS(=O)(=O)CC3)cc(=O)n2c1` [Compound 138]: the IC50 under setting [3] was > 2000 nM. Under setting [2], the “T47D pAKT S473 HTRF IC50 (H1047R): T47D (H1047R) selectivity over SKBR3 (WT)” value is listed as “C (C denotes ≤5-fold)”. Regarding `Cc1cc([C@H](C)Nc2ccccc2C(=O)O)c2nc(N3CCS(=O)(=O)CC3)cc(=O)n2c1` [Compound 139], the IC50 under setting [3] was > 2000 nM. For the same compound, under setting [2], the “T47D pAKT S473 HTRF IC50 (H1047R): T47D (H1047R) selectivity over SKBR3 (WT)” value is recorded as “C (C denotes ≤5-fold)”. In the same order, the values of `Cc1cc(C(C)Nc2ccccc2C(=O)O)c2nc(N3CCSCC3)cc(=O)n2c1` (stereo not shown) [Compound 140] are 100 to 500 nM and “A (A denotes >20-fold)”. Take `Cc1cc(C(C)Nc2ccccc2C(=O)O)c2nc(-c3ccc[nH]c3=O)cc(=O)n2c1` (stereo not shown) [Compound 144]: the 50% inhibitory concentration (IC50) under setting [3] is > 2000 nM. For the same compound, under setting [2], the “T47D pAKT S473 HTRF IC50 (H1047R): T47D (H1047R) selectivity over SKBR3 (WT)” value is “C (C denotes ≤5-fold)”.

Consider `Cc1cc(C(C)Nc2ccccc2C(=O)O)c2nc(-c3cnc(N)nc3)cc(=O)n2c1` (stereo not shown) [Compound 145], for which, under setting [3], the IC50 fell in the range of 500 to 2000 nM. Under setting [2], the “T47D pAKT S473 HTRF IC50 (H1047R): T47D (H1047R) selectivity over SKBR3 (WT)” value is recorded as “B (B denotes 20-fold≥value>5-fold)”. The matching figures for `Cc1cc([C@@H](C)Nc2ccccc2C(N)=O)c2nc(N3CCOCC3)cc(=O)n2c1` [Compound 146]: > 2000 nM and “C (C denotes ≤5-fold)”.

By IC50 is commonly meant the point on the concentration scale where inhibition reaches its midpoint. A lower IC50 goes with greater potency in that assay.
